Experimental data taken from BigSolDB 2.1.

CN1c2ccccc2C(=O)N2CCc3c([nH]c4ccccc34)[C@H]21
solubility (mole fraction)
Conditions	283.2 K	288.2 K	293.2 K	298.2 K	303.2 K	313.2 K	323.2 K
in acetone	0.000216	–	0.000303	–	0.00038	0.000513	0.000676
in chloroform	0.000683	–	0.000876	–	0.00105	0.00135	0.00183
in cyclohexane	1.68e-06	–	2.81e-06	–	4.49e-06	6.47e-06	9.36e-06
in dichloromethane	0.000334	0.00037	0.000417	0.00048	0.000571	–	–
in diethyl ether	4.06e-05	5.16e-05	6.93e-05	7.51e-05	9.09e-05	–	–
in ethanol	6.12e-05	–	8.02e-05	–	0.000116	0.000173	0.000257
in ethyl acetate	0.000135	–	0.000165	–	0.000255	0.000321	0.000412
in isopropanol	7e-05	–	8.69e-05	–	0.000119	0.000181	0.000287
in methanol	3.52e-05	–	5.19e-05	–	7.24e-05	0.00011	0.000176
in n-butanol	0.000112	–	0.000139	–	0.000216	0.000317	0.000458
in n-hexane	1.05e-06	–	1.66e-06	–	2.61e-06	4.37e-06	5.84e-06
in n-pentane	1.59e-06	2.2e-06	2.92e-06	3.79e-06	4.7e-06	–	–
